From patent publication US20240189375A1, “COMPOSITION COMPRISING A […] AN EXTRACT THEREOF FOR USE IN THE TREATMENT OF A VIRAL DISEASE” (priority 2021, published 2024) come the findings set out here.

The test has as its target T1, rACE2 (Homo sapiens, UniProt Q9BYF1).
T1 construct: purchased R&D systems, Zug
Kind of test: ACE2 enzymatic activity assay with fluorogenic substrate. The test is classed as biochemical. The note with it: range of 0.045 nM to 11100 nM; positive control; read-out: half maximal inhibitory concentration (IC50) of ACE2 catalytic activity. As to the method: The ACE2 enzymatic activity assay was designed to measure the exopeptidase activity of ACE2 and to screen for inhibition. Activity was measured using a commercially available synthetic fluorogenic substrate for ACE2 and rACE2 (R&D systems, Zug). rACE2 was used to generate a standard curve using the assay buffer, 75 mM TRIS, 1M NaCl, ph7.5. Natural extract screening was performed using 100 ng/ml rACE2 and 15 μM ACE2 fluorogenic substrate plus the Chlorella extracts in various concentrations. Subsequently the mixture was incubated for 1 h at 37° C. and measured using Flexstation 3 (Molecular Devices, San Jose, CA, USA) at excitation 320 nm and emission 405 nm.

T1 sequence (Q9BYF1 18-805): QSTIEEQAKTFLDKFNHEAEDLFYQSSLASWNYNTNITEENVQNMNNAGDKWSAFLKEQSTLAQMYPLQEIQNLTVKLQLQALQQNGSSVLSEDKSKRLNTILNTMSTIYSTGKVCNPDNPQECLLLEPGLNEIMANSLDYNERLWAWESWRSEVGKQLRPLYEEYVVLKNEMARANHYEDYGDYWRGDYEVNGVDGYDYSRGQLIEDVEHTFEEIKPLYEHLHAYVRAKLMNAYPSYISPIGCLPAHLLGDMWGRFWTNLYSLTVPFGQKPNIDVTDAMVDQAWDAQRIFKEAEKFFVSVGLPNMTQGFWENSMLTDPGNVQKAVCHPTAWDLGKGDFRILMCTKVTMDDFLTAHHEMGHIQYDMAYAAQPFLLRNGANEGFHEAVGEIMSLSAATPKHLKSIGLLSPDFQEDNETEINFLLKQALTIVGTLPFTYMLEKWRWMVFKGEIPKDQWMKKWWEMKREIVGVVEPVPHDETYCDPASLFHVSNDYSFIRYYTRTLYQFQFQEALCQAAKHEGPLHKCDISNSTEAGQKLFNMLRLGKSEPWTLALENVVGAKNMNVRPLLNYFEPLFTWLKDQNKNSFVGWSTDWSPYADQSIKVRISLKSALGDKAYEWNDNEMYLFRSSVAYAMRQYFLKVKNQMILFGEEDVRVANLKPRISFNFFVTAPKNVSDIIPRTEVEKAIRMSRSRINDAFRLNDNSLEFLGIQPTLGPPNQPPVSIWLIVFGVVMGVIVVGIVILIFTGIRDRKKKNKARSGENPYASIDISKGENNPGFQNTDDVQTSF

For the compound `CC(C)C[C@H](N[C@@H](Cc1cncn1Cc1cc(Cl)cc(Cl)c1)C(=O)O)C(=O)O` [MLN-4760], the IC50 was determined as 0.19 nM.
